Results taken from ChEMBL document CHEMBL1138029, “Identification of neutral 4-O-alkyl quinolone nonpeptide GnRH receptor antagonists” (Bioorg Med Chem Lett, 2004).

How the values were obtained:
[1] = target: T1, Gonadotropin-releasing hormone receptor (Homo sapiens, UniProt P30968); assay: Inhibition of GnRH-stimulated phosphatidyl inositol hydrolysis in CHO cells expressing GnRH receptor; format: functional, cell-based
T1 sequence (P30968 whole entry): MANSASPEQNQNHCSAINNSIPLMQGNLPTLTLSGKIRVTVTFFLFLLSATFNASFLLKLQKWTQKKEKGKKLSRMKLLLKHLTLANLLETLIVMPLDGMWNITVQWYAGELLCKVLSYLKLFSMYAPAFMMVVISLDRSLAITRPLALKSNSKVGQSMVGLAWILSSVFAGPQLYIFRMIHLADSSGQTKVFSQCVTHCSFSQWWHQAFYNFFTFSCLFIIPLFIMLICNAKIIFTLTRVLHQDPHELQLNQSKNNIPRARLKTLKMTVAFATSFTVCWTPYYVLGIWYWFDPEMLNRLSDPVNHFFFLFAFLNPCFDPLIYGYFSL

[2] = target: T1, Gonadotropin-releasing hormone receptor; assay: Binding affinity towards human gonadotropin releasing hormone receptor expressed in CHO cells was determined by using [125I]-buserelin as radioligand; format: cell-based

SMILES	IC50 [1] [nM]	IC50 [2] [nM]
Cc1cc(-c2c(OCC[C@@H]3CCN3)c3cc(C(=O)Nc4ccncn4)c(Cl)cc3[nH]c2=O)cc(C)c1C	0.9	–
Cc1cc(-c2c(OCCC3CCCO3)c3cc(C(=O)Nc4ccncn4)c(Cl)cc3[nH]c2=O)cc(C)c1C (stereo not given)	3.3	0.6
Cc1cc(-c2c(O)nc3cc(Cl)c(C(=O)Nc4cnsn4)cc3c2OCCC2CCCC2)cc(C)c1C	1150	243
Cc1cc(-c2c(O)nc3cc(Cl)c(C(=O)Nc4cnsn4)cc3c2OCC[C@H]2CCC(=O)N2C)cc(C)c1C	11	1.4
Cc1cc(-c2c(O)nc3cc(Cl)c(C(=O)Nc4cnsn4)cc3c2OCCC2OCCO2)cc(C)c1C	67	0.6
Cc1cc(-c2c(OCCC3CC4CCN3CC4)c3cc(C(=O)Nc4cnsn4)c(Cl)cc3[nH]c2=O)cc(C)c1C (stereo not given)	5.8	0.6
Cc1cc(-c2c(O)nc3cc(Cl)c(C(=O)Nc4ccncn4)cc3c2OCC[C@@H]2CCC[C@H](C(F)(F)F)N2)cc(C)c1C	18	2
Cc1cc(-c2c(OCC[C@@H]3CCN3)c3cc(C(=O)Nc4cnsn4)c(Cl)cc3[nH]c2=O)cc(C)c1C	0.8	0.32
Cc1cc(-c2c(O)nc3cc(Cl)c(C(=O)Nc4ccncn4)cc3c2OCC[C@@H]2CCCN2)cc(C)c1C	2.2	0.8
Cc1cc(-c2c(O)nc3cc(Cl)c(C(=O)Nc4cnsn4)cc3c2OCC[C@H]2CCO2)cc(C)c1C	49	0.9
Cc1cc(-c2c(O)nc3cc(Cl)c(C(=O)Nc4cnsn4)cc3c2OCC[C@H]2CCC(=O)N2)cc(C)c1C	0.7	0.3
Cc1cc(-c2c(O)nc3cc(Cl)c(C(=O)Nc4ccncn4)cc3c2OCC[C@@H]2CCC[C@H](C(F)(F)F)N2C)cc(C)c1C	18	2
Cc1cc(-c2c(OCCC3COCCN3)c3cc(C(=O)Nc4cnsn4)c(Cl)cc3[nH]c2=O)cc(C)c1C (stereo not given)	32	0.7
Cc1cc(-c2c(OCC[C@@H]3CCCCN3)c3cc(C(=O)Nc4cnsn4)c(Cl)cc3[nH]c2=O)cc(C)c1C	1.6	0.55
Cc1cc(-c2c(OCC[C@H]3CC(=O)N3)c3cc(C(=O)Nc4cnsn4)c(Cl)cc3[nH]c2=O)cc(C)c1C	1.3	0.1
Cc1cc(-c2c(OCC[C@@H]3CCCCN3)c3cc(C(=O)Nc4ccncn4)c(Cl)cc3[nH]c2=O)cc(C)c1C	2.2	–
